Data on 24 molecules can be found in patent US20250333424A1, “ANTIVIRAL COMPOUNDS” (Gilead Sciences, Inc., priority 2024, published 2025).

SMILES strings stand for the structures.

This test has as its system monocytic THP1 cells infected with HIV VSV-G pseudotyped GFP-NEF reporter virus. Briefly: cells. The format is cell-based. The conditions noted are these: Human immunodeficiency virus 1, THP-1, 24 h.

`Cc1cc(/C=C/C#N)cc(C)c1Oc1nc(NC23CC(C#N)(C2)C3)nc2nn3ccccc3c12` [Compound 299, (E)-3-((4-(4-(2-cyanovinyl)-2,6-dimethylphenoxy)pyrido[1′,2′:1,5]pyrazolo[3,4-d]pyrimidin-2-yl)amino)bicyclo[1.1.1]pentane-1-carbonitrile]: the EC50 – broadly, the concentration at which the effect is half-maximal – was 40.1 nM. For the molecule `Cc1cc(/C=C/C#N)cc(C)c1Oc1nc(NC23CC(C#N)(C2)C3)nc2occ(C)c12` [Compound 300, (E)-3-((4-(4-(2-cyanovinyl)-2,6-dimethylphenoxy)-5-methylfuro[2,3-d]pyrimidin-2-yl)amino)bicyclo[1.1.1]pentane-1-carbonitrile], the EC50 was 87.6 nM. `Cc1cc(/C=C/C#N)cc(C)c1Oc1nc(NC23CC(C#N)(C2)C3)nc2nn3c(c12)OCCC3` [Compound 301, (E)-3-((4-(4-(2-cyanovinyl)-2,6-dimethylphenoxy)-7,8-dihydro-6H-pyrimido[4′,5′:3,4]pyrazolo[5,1-b][1,3]oxazin-2-yl)amino)bicyclo[1.1.1]pentane-1-carbonitrile] gave an EC50 of 50.7 nM.

Turning to `Cc1cc(/C=C/C#N)cc(C)c1Oc1nc(NC23CC(C#N)(C2)C3)nc2[nH]cc(C)c12` [Compound 302, (E)-3-((4-(4-(2-cyanovinyl)-2,6-dimethylphenoxy)-5-methyl-7H-pyrrolo[2,3-d]pyrimidin-2-yl)amino)bicyclo[1.1.1]pentane-1-carbonitrile], the response was half-maximal at 211 nM (EC50).

Regarding `Cc1cc(/C=C/C#N)cc(C)c1Oc1nc(NC23CC(C#N)(C2)C3)nc2[nH]c(C)c(C)c12` [Compound 303, (E)-3-((4-(4-(2-cyanovinyl)-2,6-dimethylphenoxy)-5,6-dimethyl-7H-pyrrolo[2,3-d]pyrimidin-2-yl)amino)bicyclo[1.1.1]pentane-1-carbonitrile], a half-maximal response (EC50) required 232 nM. In the case of `Cc1cc(/C=C/C#N)cc(C)c1Oc1nc(NC23CC(C#N)(C2)C3)nc2nn(CC#N)cc12` [Compound 304, (E)-3-((2-(cyanomethyl)-4-(4-(2-cyanovinyl)-2,6-dimethylphenoxy)-2H-pyrazolo[3,4-d]pyrimidin-6-yl)amino)bicyclo[1.1.1]pentane-1-carbonitrile] it was 107 nM; in that of `Cc1cc(/C=C/C#N)cc(C)c1Oc1nc(NC23CC(C#N)(C2)C3)nc2nn(CCO)cc12` [Compound 305, (E)-3-((4-(4-(2-cyanovinyl)-2,6-dimethylphenoxy)-2-(2-hydroxyethyl)-2H-pyrazolo[3,4-d]pyrimidin-6-yl)amino)bicyclo[1.1.1]pentane-1-carbonitrile], 45 nM; in that of `Cc1cc(/C=C/C#N)cc(C)c1Oc1nc(NC23CC(C#N)(C2)C3)nc2c1C1(C)O[C@H](C)CN1C2=O` (stereo partly drawn) [Compound 308, 3-(((6R)-4-(4-((E)-2-cyanovinyl)-2,6-dimethylphenoxy)-4b,6-dimethyl-9-oxo-4b,6,7,9-tetrahydrooxazolo[3′,2′:1,5]pyrrolo[3,4-d]pyrimidin-2-yl)amino)bicyclo[1.1.1]pentane-1-carbonitrile], 60.1 nM. The value for `Cc1cc(/C=C/C#N)cc(C)c1Oc1nc(NC23CC(C#N)(C2)C3)nc2c1[C@H](C)N(c1cnn(C)c1)C2=O` [Compound 312, (S,E)-3-((4-(4-(2-cyanovinyl)-2,6-dimethylphenoxy)-5-methyl-6-(1-methyl-1H-pyrazol-4-yl)-7-oxo-6,7-dihydro-5H-pyrrolo[3,4-d]pyrimidin-2-yl)amino)bicyclo[1.1.1]pentane-1-carbonitrile] was 15.1 nM; that for `Cc1cc(/C=C/C#N)cc(C)c1Oc1nc(NC23CC(C#N)(C2)C3)nc2c1[C@@H](C)N(c1cnn(C)c1)C2=O` [Compound 313, (R,E)-3-((4-(4-(2-cyanovinyl)-2,6-dimethylphenoxy)-5-methyl-6-(1-methyl-1H-pyrazol-4-yl)-7-oxo-6,7-dihydro-5H-pyrrolo[3,4-d]pyrimidin-2-yl)amino)bicyclo[1.1.1]pentane-1-carbonitrile] was 468 nM; that for `Cc1cc(/C=C/C#N)cc(C)c1Oc1nc(NC23CC(C#N)(C2)C3)nc2c1C1(C)OCCCN1C2=O` (stereo not drawn) [Compound 314, (E)-3-((4-(4-(2-cyanovinyl)-2,6-dimethylphenoxy)-4b-methyl-10-oxo-4b,7,8,10-tetrahydro-6H-pyrimido[5′,4′:3,4]pyrrolo[2,1-b][1,3]oxazin-2-yl)amino)bicyclo[1.1.1]pentane-1-carbonitrile] was 25.3 nM. `Cc1cc(/C=C/C#N)cc(C)c1Oc1nc(NC23CC(C#N)(C2)C3)nc2c1C(C)N(CC#N)C2=O` (stereo not drawn) [Compound 315, (E)-3-((6-(cyanomethyl)-4-(4-(2-cyanovinyl)-2,6-dimethylphenoxy)-5-methyl-7-oxo-6,7-dihydro-5H-pyrrolo[3,4-d]pyrimidin-2-yl)amino)bicyclo[1.1.1]pentane-1-carbonitrile] had an EC50 of 188 nM. In the case of `Cc1cc(/C=C/C#N)cc(C)c1Oc1nc(NC23CC(C#N)(C2)C3)nc2c1C(C)(O)N(CC#N)C2=O` (stereo not drawn) [Compound 316, (E)-3-((6-(cyanomethyl)-4-(4-(2-cyanovinyl)-2,6-dimethylphenoxy)-5-hydroxy-5-methyl-7-oxo-6,7-dihydro-5H-pyrrolo[3,4-d]pyrimidin-2-yl)amino)bicyclo[1.1.1]pentane-1-carbonitrile] it was 77.5 nM.

`CCc1cc(/C=C/C#N)cc(Cl)c1Oc1nc(NC23CC(C#N)(C2)C3)nc2[nH]nc(C)c12` [Example 1, (E)-3-((4-(2-chloro-4-(2-cyanovinyl)-6-ethylphenoxy)-3-methyl-1H-pyrazolo[3,4-d]pyrimidin-6-yl)amino)bicyclo[1.1.1]pentane-1-carbonitrile] registered an EC50 of 46.7 nM. `Cc1cc(/C=C/C#N)cc(C)c1Oc1nc(NC23CC(C#N)(C2)C3)nc2c1C1(C)OCC3(CCC3)CN1C2=O` (stereo not drawn) [Example 198, (E)-3-((4′-(4-(2-cyanovinyl)-2,6-dimethylphenoxy)-4b′-methyl-10′-oxo-4b′,10′-dihydro-6′H,8′H-spiro[cyclobutane-1,7′-pyrimido[5′,4′:3,4]pyrrolo[2,1-b][1,3]oxazin]-2′-yl)amino)bicyclo[1.1.1]pentane-1-carbonitrile] showed an EC50 of 115 nM. In the case of `Cc1cc(/C=C/C#N)cc(C)c1Oc1nc(NC23CC(C#N)(C2)C3)nc2c1C1(C)OCC3(COC3)CN1C2=O` (stereo not drawn) [Example 199, (E)-3-((4′-(4-(2-cyanovinyl)-2,6-dimethylphenoxy)-4b′-methyl-10′-oxo-4b′,10′-dihydro-6′H,8′H-spiro[oxetane-3,7′-pyrimido[5′,4′:3,4]pyrrolo[2,1-b][1,3]oxazin]-2′-yl)amino)bicyclo[1.1.1]pentane-1-carbonitrile] it was 49 nM; in that of `Cc1cc(/C=C/C#N)cc(C)c1Oc1nc(NC23CC(C#N)(C2)C3)nc2c1C1(C)OCC3(CCOCC3)CN1C2=O` (stereo not drawn) [Example 200, (E)-3-((4′-(4-(2-cyanovinyl)-2,6-dimethylphenoxy)-4b′-methyl-10′-oxo-2,3,4b′,5,6,10′-hexahydro-6′H,8′H-spiro[pyran-4,7′-pyrimido[5′,4′:3,4]pyrrolo[2,1-b][1,3]oxazin]-2′-yl)amino)bicyclo[1.1.1]pentane-1-carbonitrile], 175 nM; in that of `Cc1cc(/C=C/C#N)cc(C)c1Oc1nc(NC23CC(C#N)(C2)C3)nc2c1C1(C)OC[C@@H](F)CN1C2=O` (stereo partly drawn) [Example 201, 3-(((7S)-4-(4-((E)-2-cyanovinyl)-2,6-dimethylphenoxy)-7-fluoro-4b-methyl-10-oxo-4b,7,8,10-tetrahydro-6H-pyrimido[5′,4′:3,4]pyrrolo[2,1-b][1,3]oxazin-2-yl)amino)bicyclo[1.1.1]pentane-1-carbonitrile], 88.6 nM.

With `Cc1cc(/C=C/C#N)cc(C)c1Oc1nc(NC23CC(C#N)(C2)C3)nc2c1C1(C)OC[C@H](F)CN1C2=O` (stereo partly drawn) [Example 202, 3-(((7R)-4-(4-((E)-2-cyanovinyl)-2,6-dimethylphenoxy)-7-fluoro-4b-methyl-10-oxo-4b,7,8,10-tetrahydro-6H-pyrimido[5′,4′:3,4]pyrrolo[2,1-b][1,3]oxazin-2-yl)amino)bicyclo[1.1.1]pentane-1-carbonitrile], the EC50 was 18.9 nM. Molecule `COCCN1C(=O)c2nc(NC34CC(C#N)(C3)C4)nc(Oc3c(C)cc(/C=C/C#N)cc3C)c2C1C` (stereo not drawn) [Example 203, (E)-3-((4-(4-(2-cyanovinyl)-2,6-dimethylphenoxy)-6-(2-methoxyethyl)-5-methyl-7-oxo-6,7-dihydro-5H-pyrrolo[3,4-d]pyrimidin-2-yl)amino)bicyclo[1.1.1]pentane-1-carbonitrile] showed an EC50 of 27.5 nM. The value for `CCN1C(=O)c2nc(NC34CC(C#N)(C3)C4)nc(Oc3c(C)cc(/C=C/C#N)cc3C)c2C1C` (stereo not drawn) [Example 204, (E)-3-((4-(4-(2-cyanovinyl)-2,6-dimethylphenoxy)-6-ethyl-5-methyl-7-oxo-6,7-dihydro-5H-pyrrolo[3,4-d]pyrimidin-2-yl)amino)bicyclo[1.1.1]pentane-1-carbonitrile] was 23.4 nM; that for `C=CCN1C(=O)c2nc(NC34CC(C#N)(C3)C4)nc(Oc3c(C)cc(/C=C/C#N)cc3C)c2C1C` (stereo not drawn) [Example 205, (E)-3-((6-allyl-4-(4-(2-cyanovinyl)-2,6-dimethylphenoxy)-5-methyl-7-oxo-6,7-dihydro-5H-pyrrolo[3,4-d]pyrimidin-2-yl)amino)bicyclo[1.1.1]pentane-1-carbonitrile] was 42.7 nM.

Regarding `Cc1cc(/C=C/C#N)cc(C)c1Oc1nc(NC23CC(C#N)(C2)C3)nc2c1C(C)N(C(C)C)C2=O` (stereo not drawn) [Example 206, (E)-3-((4-(4-(2-cyanovinyl)-2,6-dimethylphenoxy)-6-isopropyl-5-methyl-7-oxo-6,7-dihydro-5H-pyrrolo[3,4-d]pyrimidin-2-yl)amino)bicyclo[1.1.1]pentane-1-carbonitrile], the EC50 came to 280 nM.

As to `Cc1cc(/C=C/C#N)cc(C)c1Oc1nc(NC23CC(C#N)(C2)C3)nc2c1C(C)N(CCC(F)(F)F)C2=O` (stereo not drawn) [Example 207, (E)-3-((4-(4-(2-cyanovinyl)-2,6-dimethylphenoxy)-5-methyl-7-oxo-6-(3,3,3-trifluoropropyl)-6,7-dihydro-5H-pyrrolo[3,4-d]pyrimidin-2-yl)amino)bicyclo[1.1.1]pentane-1-carbonitrile], the EC50 is 70.3 nM.
